Results as given in patent US11690387B2, “Methods and related compositions for manufacturing food and feed” (priority 2017, dated 2023).

What was measured:
Drosophila melanogaster [1] = test: Larval mass assay: larval area on defined diet, axenic or mono-associated with one bacterium (Example 8); type: in vivo; details: after 13 days, 10-15 larvae per replicate, FIG. 3
Text: For the experimental setup to measure the larval growth rate, defined diet was used (Piper et al., 2014, Nature Methods). Defined diet eliminates the effects of batch to batch variation in the ingredients used for the cornmeal based diet. In addition, the defined diet allows for the exclusion of individual components to test their effects on fly development.
To test whether the presence of bacteria producing amino acids can increase the body mass of developing larvae when raised on defined diet, we produced larvae that are axenic, and mono-associated with a single strain of bacterium. For these assays, three different bacteria were used, Corynebacterium glutamicum—a strain that produces glutamate, Corynebacterium glutamicum—a strain that produces methionine, and E. coli.
First, axenic embryos were generated. Fertilized embryos were collected from fruit flies over a 6 hour period on grape juice agar plates with yeast. To eliminate any bacterial contamination, the embryos were treated with 2% hypochlorite solution for five minutes and then washed thrice with sterile water. One volume of embryos was then suspended in 3 volumes of water.
The defined diet was aliquoted into vials and nine replicates were used for every condition being tested. […]
After 13 days, 10-15 randomly chosen larvae from each replicate were sampled, and their areas were measured, as a proxy to their biomass and weight. […]

Drosophila melanogaster [2] = test: Development rate assay: time to adult emergence on diet seeded with Corynebacterium glutamicum (Example 8); type: in vivo; details: diet seeded with 10^9 CFUs of bacteria vs axenic/sterile diet; adults counted every 12 hours
Experimental: The media used to rear flies is cornmeal, molasses and yeast medium (11 g/l yeast, 54 g/l yellow cornmeal, 5 g/l agar, 66 ml/l molasses, and 4.8 ml/l propionic acid). All the components of the diet except propionic acid are heated together to 80° C. in deionized water with constant mixing for 30 minutes and let to cool to 60° C. Propionic acid is then mixed in and 50 ml of the diet is aliquoted into individual bottles and allowed to cool down and solidify. The flies are raised at 26° C., 16:8 hour light:dark cycle, at around 60% humidity.
On day one, 100 ul of a Corynebacterium glutamicum suspension in nutrient broth consisting of 10^9 colony forming units (CFUs) were added to five replicates of fly food. As controls, nutrient broth without the bacteria was added to five more bottles of fly food. Fertilized embryos collected from fruit flies were treated with 2% hypochlorite solution for five minutes and then washed with sterile water to remove any extracellular microbes from the embryos. 10 ul of the embryo suspension in water (one:three embryo:water suspension) was added to all the bacteria seeded and control fly food bottles. […] The time to adult emergence and the rate of emergence was measured in every replicate. From the time the first adult emerges from the pupa, the number of adult flies emerging was counted every 12 hours and rate of emergence was be computed.

fungi = details: cited from earlier work
target bacterial strains = details: against its target bacterial strains; cited from earlier work

In the case of Corynebacterium glutamicum [C. glu-Met], the “larval body size (area of the larvae, proxy to biomass and weight)” value (Drosophila melanogaster [1]) was “largest body size on average”.
With “Corynebacterium glutamicum [C. glutamicum Glu]” the “time to reach adulthood from embryos” value (Drosophila melanogaster [2]) was “reach adulthood faster than their bacteria free counterparts”.
In the case of alirin B1, the antifungal activities (fungi) is given as “have been shown to have antifungal activities”.
In the case of botrycidin AJ1316, the antifungal activities (fungi) is given as “have been shown to have antifungal activities”.
In the case of nisin, the “concentration showing antimicrobial activity” value (target bacterial strains) is given as “single-digit nanomolar concentration”.
